Results as given in patent US4798841A, “Tetrahydropyridine oxime cholinergic agents and method of treatment” (Warner-Lambert Company, priority 1987, dated 1989).
Like-named read-outs stand apart in the source and are kept apart here.

Legend:
[1] = test system: muscarinic binding site; experiment: RQNB screening assay: inhibition of radiolabeled quinuclidinyl benzilate (muscarinic antagonist) binding in rat cerebral cortex tissue; details: for % Inhib. RQNB: @ 10^-6 M; for IC50: rat cerebral cortex, radiolabeled quinuclidinyl benzilate
[2] = test system: muscarinic binding site; experiment: RCMD screening assay: inhibition of radiolabeled cis-methyldioxolane (muscarinic agonist) binding in rat cerebral cortex tissue; details: for % Inhib. RCMD: @ 10^-7 M; for IC50: rat cerebral cortex, radiolabeled cis-methyldioxolane
Description: Similarly, in the RCMD screening assay, described more fully by T. W. Vickeroy et al., J. Pharmacol. and Exp. Ther., 229 (3): 747 (1984), rat cerebral cortex tissue was treated with radiolabeled cis-methyldioxolane, a known muscarinic binding site agonist. The percent inhibition at given concentrations or concentrations of test compounds required to inhibit 50% of the binding of this muscarinic agonist were then determined.

[3] = test system: laboratory rats; experiment: Scopolamine induced swimming test (SIS); format: in vivo, rat; details: for minimal effective dose: rat, read-out: Minimal Effective Dose for Reversal of Scopolamine-Induced Swimming Hyperactivity; for Reversal of scopolamine-induced swimming hyperactivity: result in words
Description: In the scopolamine induced swimming test (SIS), the ability of representative compounds of the present invention to reverse the hyperactive swimming behavior of laboratory rats given scopolamine was assessed. In this test, untreated rats will generally swim between 20 to 30 meters during a five minute test period. […] The effect of scopolamine is centrally mediated; the ability of a test compound to reverse the hyperactive swimming behavior induced by scopolamine is thus a measure of the central cholinergic activity of the compound.

[4] = test system: aged humans and non-human primates with decreased cognition; details: result in words; cited from earlier work
[5] = test system: male Swiss-Webster mice; experiment: Antiwrithing (AW) test, acetic acid induced writhing; format: in vivo; details: ip; intraperitoneal dosing; mouse; acetic acid 0.6%; read-out: ED50 (dose necessary to suppress writhing by 50% relative to vehicle controls)
Description: The antiwrithing (AW) test provides preliminary assessment of compounds with potential analgesic activity. The test is performed with male Swiss-Webster mice. Compounds are administered in aqueous 0.2% methylcellulose or other appropriate vehicles in volumes of 10 ml/kg. Dosages represent active moiety.
Acetic acid (0.6%, 10 ml/kg) is injected intraperitoneally after administration of the compound. writhing movements are counted for five minutes starting seven minutes after the acetic acid injection. Data are expressed as ED50 values, where the ED50 is the dose necessary to suppress writhing by 50% relative to vehicle controls. ED50 values are calculated by nonlinear regression analysis.

[6] = test system: patients clinically diagnosed as having presenile primary degenerative dementia; details: double blind study; Christie et al. 1981; cited from earlier work
[7] = Davis et al. 1983; cited from earlier work

Structure (SMILES)	% Inhib. RQNB [1]	% Inhib. RCMD [2]	IC50 [1]	IC50 [2]	minimal effective dose ([3]; sc, Subcutaneous)	other results
CN1CCC=C(C(COCc2ccccc2)=NO)C1 [Methyl 3-(CH2 OCH2 Ph)]	38%	30%	–	–	–	–
CC(=NO)C1=CCN(C)CC1 [Methyl 4-Methyl]	–	–	10000 nM	490 nM	3.2 mg/kg	–
CN1[C@@H]2C[C@@H](OC(=O)[C@H](CO)c3ccccc3)C[C@H]1[C@@H]1O[C@@H]12 [scopolamine, reference compound]	–	–	–	–	–	Increase of swimming distance above base-line ([3]; scopolamine 0.1 mg/kg, five minute test period): 75-125%
CCCCC(=NO)C1=CCCN(C)C1 [Methyl 3-n-Butyl, 1-(1,2,5,6-Tetrahydro-1-methyl-3-pyridinyl)-1-pentanone oxime]	–	–	300 nM	20 nM	32 mg/kg	–
C#CCCC(=NO)C1=CCCN(C)C1 [Methyl 3-(CH2 CH2 C CH)]	–	–	1000 nM	7 nM	–	–
CNC(=O)Oc1ccc2c(c1)[C@]1(C)CCN(C)[C@@H]1N2C [physostigmine, reference compound]	–	–	–	–	–	Memory in aged humans and non-human primates with decreased cognition [4]: improved memory; Reversal of scopolamine-induced swimming hyperactivity [3]: can be reversed
CC(C)/C(=N/O)C1=CCCN(C)C1 [Methyl 3-(1-Methylethyl) (syn), 2-Methyl-1-(1,2,5,6-tetrahydro-1-methyl-3-pyridinyl)-1-propanone oxime]	35%	43%	–	–	–	–
CCCN1CCC=C(C(CCc2ccccc2)=NO)C1 [n-Propyl 3-Phenylmethyl]	63%	3%	–	–	–	–
CN1CCC=C(C(CCc2ccccc2)=NO)C1 [Methyl 3-Phenylmethyl]	86%	66%	–	–	–	–
CCC(=NO)C1=CCCN(C)C1 [Methyl 3-Ethyl, 1-(1,2,5,6-Tetrahydro-1-methyl-3-pyridinyl)-1-propanone oxime]	–	–	2000 nM	50 nM	32 mg/kg	–
CC(=NO)C1=CCCN(C)C1 [Methyl 3-Methyl, 1-(1,2,5,6-Tetrahydro-1-methyl-3-pyridinyl)-ethanone oxime]	–	–	4650 nM	19 nM	3.2 mg/kg	ED50 [5]: 1.1 mg/kg
CC(=NO)C1=CCCNC1 [Hydrogen 3-Methyl, 1-(1,2,5,6-Tetrahydro-3-pyridinyl)ethanone oxime]	24%	85%	–	–	3.2 mg/kg	–
COC(=O)C1=CCCN(C)C1 [arecoline, methyl ester of 1,2,5,6-tetra-hydro-1-methyl-3-pyridinecarboxylic acid, reference compound]	–	–	–	–	–	Test of picture recognition [6]: Significant improvement; Reversal of scopolamine-induced swimming hyperactivity [3]: can be reversed
CN1CCC=C(C=NO)C1 [Methyl Hydrogen, 1,2,5,6-Tetrahydro-1-methyl-3-pyridinecarboxaldehyde oxime]	8%	22%	–	–	32 mg/kg	–
C=CCCC(=NO)C1=CCCN(C)C1 [Methyl 3-(CH2 CH2 CHCH2), 1-(1,2,5,6-Tetrahydro-1-methyl-3-pyridinyl)-4-penten-1-one oxime]	–	–	600 nM	40 nM	32 mg/kg	–
CC(C)/C(=N\O)C1=CCCN(C)C1 [Methyl 3-(1-Methylethyl) (anti), 2-Methyl-1-(1,2,5,6-tetrahydro-1-methyl-3-pyridinyl)-1-propanone oxime]	10%	10%	–	–	–	–
CN1CCC=C(C(CCc2ccccc2)=NO)C1 [Methyl 3-(CH2 CH2Ph), 3-Phenyl-1-(1,2,5,6-tetrahydro-1-methyl-3-pyridinyl)-1-propanone oxime]	–	–	–	–	32 mg/kg	–
COCCCC(=NO)C1=CCCN(C)C1 [Methyl 3-(CH2 CH2 CH2 OCH3), 4-Methoxy-1-(1,2,5,6-tetrahydro-1-methyl-3-pyridinyl)-1-butanone Oxime]	–	–	2500 nM	30 nM	32 mg/kg	–
CCN1CCC=C(C(C)=NO)C1 [Ethyl 3-Methyl, 1-(1-Ethyl-1,2,5,6-tetrahydro-3-pyridinyl)ethanone oxime]	23%	21%	–	–	–	–
CCCN1CCC=C(C(CCc2ccccc2)=NO)C1 [n-Propyl 3-(CH2 CH2Ph), 3-Phenyl-1-(1,2,5,6-tetrahydro-1-propyl-3-pyridinyl)-1-propanone oxime]	–	–	–	–	–	minimal effective dose ([3]; Oral): 3.2 mg/kg
CN1CCC=C(C(=NO)c2ccccc2)C1 [Methyl 3-Phenyl, Phenyl(1,2,5,6-tetrahydro-1-methyl-3-pyridinyl)methanone oxime]	51%	39%	–	–	–	–
Nc1ccncc1N [3,4-diaminopyridine]	–	–	–	–	–	Age-related cognitive deficits [7]: ameliorate age-related cognitive deficits
